Measurements published in patent US9403847B2, “Substituted heteroaryl fused derivatives as P13K inhibitors” (Incyte Corporation, priority 2009, dated 2016).
Counter-ions that a name gives are not always drawn.

Assays:
[1] = biological target: T1, PI3Kδ (p110δ/p85α) (Homo sapiens, UniProt O00329); assay: PI3Kδ scintillation proximity assay (enzyme assay A); format: biochemical; conditions: 20 μM PIP2, 20 μM ATP, 4 nM PI3Kδ, 210 minutes, room temperature; read-out: IC50 data for PI3Kδ enzyme assay A (PI3Kd Enzyme Assay A)
T1 construct: purchased Millipore (Bedford, Mass.)
Text: Materials: [γ-^33P]ATP (10 mCi/mL) was purchased from PerkinElmer (Waltham, Mass.). Lipid kinase substrate, D-myo-Phosphatidylinositol 4,5-bisphosphate (PtdIns(4,5)P2)D (+)-sn-1,2-di-O-octanoylglyceryl, 3-O-phospho linked (PIP2), CAS 204858-53-7, was purchased from Echelon Biosciences (Salt Lake City, Utah). PI3Kδ (p110δ/p85α) was purchased from Millipore (Bedford, Mass.). ATP, MgCl2, DTT, EDTA, MOPS and CHAPS were purchased from Sigma-Aldrich (St. Louis, Mo.). Wheat Germ Agglutinin (WGA) YSi SPA Scintillation Beads was purchased from GE healthcare life sciences (Piscataway, N.J.).
Assay: The kinase reaction was conducted in polystyrene 384-well matrix white plate from Thermo Fisher Scientific in a final volume of 25 μL. Inhibitors were first diluted serially in DMSO and added to the plate wells before the addition of other reaction components. The final concentration of DMSO in the assay was 0.5%. The PI3K assays were carried out at room temperature in 20 mM MOPS, pH 6.7, 10 mM MgCl2, 5 mM DTT and CHAPS 0.03%. Reactions were initiated by the addition of ATP, the final reaction mixture consisted of 20 μM PIP2, 20 μM ATP, 0.2 μCi [γ-^33P] ATP, 4 nM PI3Kδ. Reactions were incubated for 210 minutes and terminated by the addition of 40 μL SPA beads suspended in quench buffer: 150 mM potassium phosphate pH 8.0, 20% glycerol. 25 mM EDTA, 400 μM ATP. The final concentration of SPA beads is 1.0 mg/mL. After the plate sealing, plates were shaken overnight at room temperature and centrifuged at 1800 rpm for 10 minutes, the radioactivity of the product was determined by scintillation counting on Topcount (PerkinElmer). IC50 determination was performed by fitting the curve of percent control activity versus the log of the inhibitor concentration using the GraphPad Prism 3.0 software.

[2] = test system: B cells; assay: B cell proliferation assay ([3H]-thymidine incorporation, anti-human IgM stimulation); format: cell-based; conditions: 72 h, purified human B cells, goat F(ab')2 anti-human IgM 10 μg/ml, three days plus 12 hrs [3H]-thymidine
Description: To acquire B cells, human PBMC were isolated from the peripheral blood of normal, drug free donors by standard density gradient centrifugation on Ficoll-Hypague (GE Healthcare, Piscataway, N.J.) and incubated with anti-CD19 microbeads (Miltenyi Biotech, Auburn, Calif.). The B cells were then purified by positive immunosorting using an autoMacs (Miltenyi Biotech) according to the manufacture's instruction.
The purified B cells (2×10^5/well/200 μL) were cultured in 96-well ultra-low binding plates (Corning, Corning, N.Y.) in RPMI1640, 10% FBS and goat F(ab′)2 anti-human IgM (10 μg/ml) (Invitrogen, Carlsbad, Calif.), in the presence of different amount of test compounds, for three days. [^3H]-thymidine (1 μCi/well) (PerkinElmer, Boston, Mass.) in PBS was then added to the B cell cultures for an additional 12 hrs before the incorporated radioactivity was separated by filtration with water through GF/B filters (Packard Bioscience, Meriden, Conn.) and measured by liquid scintillation counting with a TopCount (Packard Bioscience). […] See Table 2 for data related to compounds of the invention.

T1 sequence (O00329 whole entry): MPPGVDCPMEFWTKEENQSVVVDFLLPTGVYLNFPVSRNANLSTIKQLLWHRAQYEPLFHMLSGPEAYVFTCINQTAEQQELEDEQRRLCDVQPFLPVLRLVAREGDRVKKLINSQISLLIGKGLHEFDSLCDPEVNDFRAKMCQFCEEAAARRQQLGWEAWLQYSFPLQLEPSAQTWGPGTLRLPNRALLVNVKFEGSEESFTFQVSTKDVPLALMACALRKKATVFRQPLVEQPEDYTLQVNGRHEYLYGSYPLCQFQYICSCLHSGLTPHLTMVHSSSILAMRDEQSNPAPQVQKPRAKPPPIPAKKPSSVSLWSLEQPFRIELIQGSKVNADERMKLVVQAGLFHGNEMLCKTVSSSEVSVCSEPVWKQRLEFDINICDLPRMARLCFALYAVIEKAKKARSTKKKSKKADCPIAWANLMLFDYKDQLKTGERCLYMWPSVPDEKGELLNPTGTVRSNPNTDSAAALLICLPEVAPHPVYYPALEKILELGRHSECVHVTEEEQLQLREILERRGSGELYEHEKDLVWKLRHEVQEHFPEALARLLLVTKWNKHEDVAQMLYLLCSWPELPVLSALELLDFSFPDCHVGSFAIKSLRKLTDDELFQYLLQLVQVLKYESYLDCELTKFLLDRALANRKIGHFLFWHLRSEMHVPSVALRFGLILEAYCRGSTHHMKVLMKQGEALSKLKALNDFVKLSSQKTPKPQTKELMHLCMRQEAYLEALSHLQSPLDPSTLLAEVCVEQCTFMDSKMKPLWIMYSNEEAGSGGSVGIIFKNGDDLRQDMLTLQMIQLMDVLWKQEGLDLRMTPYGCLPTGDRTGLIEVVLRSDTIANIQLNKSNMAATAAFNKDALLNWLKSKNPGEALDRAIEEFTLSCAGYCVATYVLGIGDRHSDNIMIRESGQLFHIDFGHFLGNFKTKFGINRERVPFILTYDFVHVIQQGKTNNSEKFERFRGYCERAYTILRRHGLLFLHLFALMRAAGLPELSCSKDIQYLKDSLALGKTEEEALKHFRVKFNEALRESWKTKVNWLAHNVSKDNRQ
T1 sequence (P27986 whole entry partner): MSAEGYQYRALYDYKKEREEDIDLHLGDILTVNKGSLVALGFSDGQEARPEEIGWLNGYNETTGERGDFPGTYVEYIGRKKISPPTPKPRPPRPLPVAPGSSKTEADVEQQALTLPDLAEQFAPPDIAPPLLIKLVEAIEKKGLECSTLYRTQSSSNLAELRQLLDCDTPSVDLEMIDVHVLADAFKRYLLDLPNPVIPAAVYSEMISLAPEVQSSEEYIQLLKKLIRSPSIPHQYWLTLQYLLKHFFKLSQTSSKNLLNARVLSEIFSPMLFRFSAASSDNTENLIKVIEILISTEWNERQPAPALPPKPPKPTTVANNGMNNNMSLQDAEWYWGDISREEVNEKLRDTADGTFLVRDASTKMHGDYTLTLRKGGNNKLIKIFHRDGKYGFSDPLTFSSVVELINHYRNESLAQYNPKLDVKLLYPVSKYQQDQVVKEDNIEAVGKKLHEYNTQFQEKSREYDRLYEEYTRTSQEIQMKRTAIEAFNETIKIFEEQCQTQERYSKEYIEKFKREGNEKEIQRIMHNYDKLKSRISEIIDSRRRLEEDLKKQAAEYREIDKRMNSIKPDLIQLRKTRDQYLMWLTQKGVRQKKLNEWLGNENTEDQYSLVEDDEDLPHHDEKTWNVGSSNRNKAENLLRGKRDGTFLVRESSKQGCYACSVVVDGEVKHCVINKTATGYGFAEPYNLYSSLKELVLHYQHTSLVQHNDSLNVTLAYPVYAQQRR

Compound | IC50 [1] [nM] | IC50 [2] [nM]
CC(Nc1ncnc2[nH]cnc12)c1nc2ccccn2c1-c1cccc(F)c1F (stereo not shown) [Example 18, N-{1-[3-(2,3-Difluorophenyl)imidazo[1,2-a]pyridin-2-yl]ethyl}-9H-purin-6-amine] | 200 to 500 | 1000 to 2500
Cc1cccc2nc(C(C)Nc3ncnc4[nH]cnc34)c(-c3cc(F)cc(F)c3)n12 (stereo not shown) [Example 1, N-{1-[3-(3,5-Difluorophenyl)-5-methylimidazo[1,2-a]pyridin-2-yl]ethyl}-9H-purin-6-amine] | < 200 | < 500
Cc1cn2c(-c3cccc(F)c3)c(C(C)Nc3ncnc4[nH]cnc34)nc2s1 (stereo not shown) [Example 5, N-{1-[5-(3-Fluorophenyl)-2-methylimidazo[2,1-b][1,3]thiazol-6-yl]ethyl}-9H-purin-6-amine] | > 2000 | 2500 to 5000
Cc1cccn2c(-c3cccc(F)c3)c(C(C)Nc3ncnc4[nH]cnc34)nc12 (stereo not shown) [Example 10, N-{1-[3-(3-Fluorophenyl)-8-methylimidazo[1,2-a]pyridin-2-yl]ethyl}-9H-purin-6-amine bis(trifluoroacetate)] | < 200 | < 500
CC(Nc1ncnc2[nH]cnc12)c1nc2ccccn2c1-c1cccc(F)c1 (stereo not shown) [Example 2, N-{1-[3-(3-Fluorophenyl)imidazo[1,2-a]pyridin-2-yl]ethyl}-9H-purin-6-amine] | < 200 | < 500
CC(Nc1ncnc2[nH]cnc12)c1nc2c(Cl)cccn2c1-c1cccc(F)c1 (stereo not shown) [Example 11, N-{1-[8-Chloro-3-(3-fluorophenyl)imidazo[1,2-a]pyridin-2-yl]ethyl}-9H-purin-6-amine bis(trifluoroacetate)] | < 200 | 500 to 1000
CC(Nc1ncnc2[nH]cnc12)c1nn2ccccc2c1-c1cc(F)cc(F)c1 (stereo not shown) [Example 25, N-{1-[3-(3,5-Difluorophenyl)pyrazolo[1,5-a]pyridin-2-yl]ethyl}-9H-purin-6-amine trifluoroacetate] | < 200 | 500 to 1000
CC(Nc1ncnc2[nH]cnc12)c1nc2ccccn2c1-c1ccc(F)cc1 (stereo not shown) [Example 24, N-{1-[3-(4-Fluorophenyl)imidazo[1,2-a]pyridin-2-yl]ethyl}-9H-purin-6-amine] | 990 to 2000 | –
CC(Nc1ncnc2[nH]cnc12)c1nc2cc(Cl)ccn2c1-c1cccc(F)c1 (stereo not shown) [Example 13, N-{1-[7-Chloro-3-(3-fluorophenyl)imidazo[1,2-a]pyridin-2-yl]ethyl}-9H-purin-6-amine] | < 200 | –
CC(Nc1ncnc2[nH]cnc12)c1nc2c(F)cccn2c1-c1cccc(F)c1 (stereo not shown) [Example 14, N-{1-[8-Fluoro-3-(3-fluorophenyl)imidazo[1,2-a]pyridin-2-yl]ethyl}-9H-purin-6-amine] | < 200 | 500 to 1000
Cc1ccc(-c2c(C(C)Nc3ncnc4[nH]cnc34)nc3ccccn23)cc1 (stereo not shown) [Example 17, N-{1-[3-(4-Methylphenyl)imidazo[1,2-a]pyridin-2-yl]ethyl}-9H-purin-6-amine] | 500 to 990 | –
CC(Nc1ncnc2[nH]cnc12)c1nc2sccn2c1-c1cc(F)cc(F)c1 (stereo not shown) [Example 3, N-{1-[5-(3,5-Difluorophenyl)imidazo[2,1-b][1,3]thiazol-6-yl]ethyl}-9H-purin-6-amine bis(trifluoroacetate)] | > 2000 | –
CC(Nc1ncnc2[nH]cnc12)c1nc2ccccn2c1-c1cc(F)cc(F)c1 (stereo not shown) [Example 23, N-{1-[3-(3,5-Difluorophenyl)imidazo[1,2-a]pyridin-2-yl]ethyl}-9H-purin-6-amine] | 200 to 500 | 1000 to 2500
CC(Nc1ncnc2[nH]cnc12)c1nc2ccccn2c1-c1cc(F)ccc1F (stereo not shown) [Example 21, N-{1-[3-(2,5-Difluorophenyl)imidazo[1,2-a]pyridin-2-yl]ethyl}-9H-purin-6-amine] | < 200 | 2500 to 5000
CC(Nc1ncnc2[nH]cnc12)c1nc2c(C#N)cccn2c1-c1cccc(F)c1 (stereo not shown) [Example 16, 3-(3-Fluorophenyl)-2-[1-(9H-purin-6-ylamino)ethyl]imidazo[1,2-a]pyridine-8-carbonitrile bis(trifluoroacetate)] | 990 to 2000 | –
Cc1ccc2nc(C(C)Nc3ncnc4[nH]cnc34)c(-c3cccc(F)c3)n2c1 (stereo not shown) [Example 8, N-{1-[3-(3-Fluorophenyl)-6-methylimidazo[1,2-a]pyridin-2-yl]ethyl}-9H-purin-6-amine bis(trifluoroacetate)] | 500 to 990 | 1000 to 2500
Cc1ccn2c(-c3cccc(F)c3)c(C(C)Nc3ncnc4[nH]cnc34)nc2c1 (stereo not shown) [Example 9, N-{1-[3-(3-Fluorophenyl)-7-methylimidazo[1,2-a]pyridin-2-yl]ethyl}-9H-purin-6-amine bis(trifluoroacetate)] | > 2000 | > 5000
CC(Nc1ncnc2[nH]cnc12)c1nc2c(C(F)(F)F)cccn2c1-c1cccc(F)c1 (stereo not shown) [Example 15, N-{1-[3-(3-Fluorophenyl)-8-(trifluoromethyl)imidazo[1,2-a]pyridin-2-yl]ethyl}-9H-purin-6-amine bis(trifluoroacetate)] | 990 to 2000 | –
Cc1cccc(-c2c(C(C)Nc3ncnc4[nH]cnc34)nc3ccccn23)c1 (stereo not shown) [Example 22, N-{1-[3-(3-Methylphenyl)imidazo[1,2-a]pyridin-2-yl]ethyl}-9H-purin-6-amine] | 500 to 990 | –
Cc1ccccc1-c1c(C(C)Nc2ncnc3[nH]cnc23)nc2ccccn12 (stereo not shown) [Example 20, N-{1-[3-(2-Methylphenyl)imidazo[1,2-a]pyridin-2-yl]ethyl}-9H-purin-6-amine] | 990 to 2000 | –
CC(Nc1ncnc2[nH]cnc12)c1nc2ccccn2c1-c1ccccc1F (stereo not shown) [Example 19, N-{1-[3-(2-Fluorophenyl)imidazo[1,2-a]pyridin-2-yl]ethyl}-9H-purin-6-amine] | 200 to 500 | < 500
CC(Nc1ncnc2[nH]cnc12)c1nc2ccc(Cl)cn2c1-c1cccc(F)c1 (stereo not shown) [Example 6, N-{1-[6-Chloro-3-(3-fluorophenyl)imidazo[1,2-a]pyridin-2-yl]ethyl}-9H-purin-6-amine bis(trifluoroacetate)] | < 200 | < 500
Cc1csc2nc(C(C)Nc3ncnc4[nH]cnc34)c(-c3cccc(F)c3)n12 (stereo not shown) [Example 4, N-{1-[5-(3-Fluorophenyl)-3-methylimidazo[2,1-b][1,3]thiazol-6-yl]ethyl}-9H-purin-6-amine bis(trifluoroacetate)] | 500 to 990 | 1000 to 2500
CC(Nc1ncnc2[nH]cnc12)c1nc2cccc(Cl)n2c1-c1cccc(F)c1 (stereo not shown) [Example 7, N-{1-[5-Chloro-3-(3-fluorophenyl)imidazo[1,2-a]pyridin-2-yl]ethyl}-9H-purin-6-amine tris(trifluoroacetate)] | < 200 | < 500
